The record followed here is PubChem BioAssay (NCI).

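Dose response: 5 concentrations. Exposure: 48 h. Format: 96-well plates. Endpoint: linear interpolation; highest concentration if not reached. The concentration for full growth arrest is given as TGI.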 A value given as a limit tells only on which side of the number the result lay.

Test systems include COLO 205 colon; HCT-116 colon; NCI-H460 lung; NCI/ADR-RES ovarian; PC-3 prostate; RPMI-8226 leukemia; SK-MEL-2 melanoma; SN12C renal; SR leukemia; UACC-62 melanoma.
Common to all, as to test: inhibition of tumour cell growth, NCI panel, 48 h

Take `[N-]=[N+]=C(C(=O)N1CCCC1=O)S(=O)(=O)c1ccccc1`: the TGI in the experiment on COLO 205 colon, in the experiment on HCT-116 colon, in the experiment with NCI-H460 lung, with NCI/ADR-RES ovarian, in the experiment with PC-3 prostate and with RPMI-8226 leukemia was more than 100 µM each time. Moreover, the TGI with SK-MEL-2 melanoma, with SN12C renal, in the experiment on SR leukemia and in the experiment with UACC-62 melanoma was more than 100 µM throughout.

Turning to `CC1(C)CCc2c(c(N=Nc3ccc(F)cc3)c3ccccc3c2O)O1`, the TGI was more than 100 µM in the experiment on COLO 205 colon; more than 100 µM with HCT-116 colon; 63.4 µM in the experiment on NCI-H460 lung; more than 100 µM in the experiment with NCI/ADR-RES ovarian; more than 100 µM in the experiment with PC-3 prostate; more than 100 µM in the experiment with RPMI-8226 leukemia. Further, the TGI is 93 µM in the experiment on SK-MEL-2 melanoma, more than 100 µM in the experiment with SN12C renal, 77.4 µM in the experiment on SR leukemia and 31.3 µM with UACC-62 melanoma.

Regarding `CC(=O)OC1COC(Nc2nc(N)n(C)c(=O)c2N=O)C(OC(C)=O)C1OC(C)=O` (stereo not given), the TGI in the experiment on COLO 205 colon, with HCT-116 colon, in the experiment with NCI-H460 lung, in the experiment on NCI/ADR-RES ovarian, in the experiment with PC-3 prostate and with RPMI-8226 leukemia was more than 10 µM throughout. The TGI in the experiment on SK-MEL-2 melanoma, in the experiment on SN12C renal, in the experiment with SR leukemia and with UACC-62 melanoma was more than 10 µM each time.

In the case of `Cc1cc(S(=O)(=O)/N=C(/NN)NNc2cccc(C(F)(F)F)n2)c(S)cc1Cl`, the TGI is 38.5 µM with COLO 205 colon; 50.6 µM in the experiment on HCT-116 colon; 72.8 µM in the experiment on NCI-H460 lung; 46.2 µM in the experiment on NCI/ADR-RES ovarian; 50.7 µM with PC-3 prostate; more than 100 µM in the experiment with RPMI-8226 leukemia. Moreover, the TGI with SK-MEL-2 melanoma was 63.2 µM; in the experiment with SN12C renal, more than 100 µM; in the experiment on SR leukemia it was 55.1 µM; in the experiment on UACC-62 melanoma it was 37 µM.

As for `Cc1sc2nc3n(c(=O)c2c1C)N=CN(c1ccc(F)cc1)C3`, the TGI in the experiment on COLO 205 colon was more than 100 µM; with HCT-116 colon, 49 µM; in the experiment with NCI-H460 lung it was more than 100 µM; with NCI/ADR-RES ovarian it was more than 100 µM; in the experiment with PC-3 prostate it was more than 100 µM; with RPMI-8226 leukemia it was more than 100 µM. For the same molecule, the TGI in the experiment with SK-MEL-2 melanoma, in the experiment with SN12C renal, in the experiment on SR leukemia and in the experiment with UACC-62 melanoma was more than 100 µM in each case.

On to `CCOC(=O)C(NC(=O)OC(C)(C)C)C(=O)OCC`, for which the TGI with COLO 205 colon, in the experiment with HCT-116 colon, in the experiment on NCI-H460 lung, in the experiment on NCI/ADR-RES ovarian, in the experiment on PC-3 prostate and with RPMI-8226 leukemia was more than 100 µM each time. Besides, the TGI with SK-MEL-2 melanoma, in the experiment with SN12C renal, in the experiment with SR leukemia and in the experiment on UACC-62 melanoma was more than 100 µM in each case.

Regarding `COc1cc(Br)c(CC2C3=C(CCN2C(=O)C2CCC2)CC(=O)CC3)cc1O` (stereo not given), the TGI with COLO 205 colon was 40 µM; with HCT-116 colon, more than 100 µM; in the experiment with NCI-H460 lung, more than 100 µM; in the experiment on NCI/ADR-RES ovarian, more than 100 µM; in the experiment with PC-3 prostate, more than 100 µM; in the experiment with RPMI-8226 leukemia, more than 100 µM. Moreover, the TGI in the experiment with SK-MEL-2 melanoma was more than 100 µM; in the experiment on SN12C renal, more than 100 µM; with SR leukemia it was more than 100 µM; in the experiment with UACC-62 melanoma, 36.3 µM.

Regarding `CN1CCN(C2=CC(=O)c3c(O)ccc(O)c3C2=O)CC1`, the TGI was 0.31 µM in the experiment with COLO 205 colon; 0.578 µM in the experiment with HCT-116 colon; 3.52 µM in the experiment with NCI-H460 lung; more than 10 µM with NCI/ADR-RES ovarian; more than 10 µM with PC-3 prostate; 6.25 µM in the experiment on RPMI-8226 leukemia. Also, the TGI in the experiment on SK-MEL-2 melanoma was 4.08 µM; in the experiment with SN12C renal, 2.99 µM; in the experiment on SR leukemia, 8.1 µM; in the experiment with UACC-62 melanoma, 3.13 µM.

Regarding `Cc1ccc([N+](=O)[O-])c2c(NCC(O)CO)ccnc12` (stereo not given), the TGI was 75.1 µM in the experiment on COLO 205 colon; more than 100 µM with HCT-116 colon; 53.2 µM with NCI-H460 lung; more than 100 µM in the experiment with NCI/ADR-RES ovarian; more than 100 µM with PC-3 prostate; more than 100 µM with RPMI-8226 leukemia. Also, the TGI in the experiment on SK-MEL-2 melanoma was 53.9 µM; in the experiment on SN12C renal, more than 100 µM; with SR leukemia, more than 100 µM; with UACC-62 melanoma it was more than 100 µM.

Turning to `COc1ccc(Nc2nc(N)c(C(=O)c3cccs3)s2)cc1`, the TGI with COLO 205 colon is 21.6 µM; in the experiment with HCT-116 colon, more than 36.5 µM; in the experiment with NCI-H460 lung, 11.1 µM; in the experiment with NCI/ADR-RES ovarian it was more than 100 µM; in the experiment on PC-3 prostate it was more than 60.2 µM; with RPMI-8226 leukemia, 21.7 µM. In addition, the TGI in the experiment on SK-MEL-2 melanoma is more than 51.4 µM; in the experiment with SN12C renal it was more than 75.6 µM; in the experiment with SR leukemia, 5.88 µM; with UACC-62 melanoma, more than 54.2 µM.

On to `Cc1c(C(=O)O)n2cnnc2c2ccccc12`, for which the TGI in the experiment with COLO 205 colon, in the experiment with HCT-116 colon, in the experiment with NCI-H460 lung, in the experiment on NCI/ADR-RES ovarian, with PC-3 prostate and with RPMI-8226 leukemia was more than 100 µM throughout. Moreover, the TGI in the experiment on SK-MEL-2 melanoma, in the experiment on SN12C renal, in the experiment with SR leukemia and with UACC-62 melanoma was more than 100 µM throughout.
